Laboratory results taken from PubChem BioAssay AID2060333 (Molecular Pharmacology Branch, DTP, NCI, 2025).

System: 845751-090-R-J2-PDC tumor spheroid viability
Assay: Anticancer human tumor 845751-090-R-J2-PDC patient-derived head and neck squamous carcinoma cell line growth inhibition [IpAb]
Conditions: spheroids with HUVEC and MSC; for IC50: curve of first compound; for viability, T/C: stronger effect = lower value
Procedure, shortened: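 Combinations with ipatasertib or abemaciclib were tested on tumour spheroids holding HUVEC (25%) and MSC (15%) alongside 60% malignant cells. Top concentration was at or near clinical Cmax (10 microM if undefined), descending in half-log steps.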

[1] = second compound 0.1 µM, first compound 0.0316 µM
[2] = second compound 0.1 µM, first compound 0.1 µM
[3] = second compound 0.1 µM, first compound 0.316 µM
[4] = second compound 0.1 µM, first compound 1 µM
[5] = second compound 0.1 µM, first compound 3.16 µM
[6] = second compound 0.1 µM, first compound 10 µM
[7] = second compound 0.316 µM, first compound 0.0316 µM
[8] = second compound 0.316 µM, first compound 0.1 µM
[9] = second compound 0.316 µM, first compound 0.316 µM
[10] = second compound 0.316 µM, first compound 1 µM
[11] = second compound 0.316 µM, first compound 3.16 µM
[12] = second compound 0.316 µM, first compound 10 µM
[13] = second compound 1 µM, first compound 0.0316 µM
[14] = second compound 1 µM, first compound 0.1 µM
[15] = second compound 1 µM, first compound 0.316 µM
[16] = second compound 1 µM, first compound 1 µM
[17] = second compound 1 µM, first compound 3.16 µM
[18] = second compound 1 µM, first compound 10 µM
[19] = second compound 3.16 µM, first compound 0.0316 µM
[20] = second compound 3.16 µM, first compound 0.1 µM
[21] = second compound 3.16 µM, first compound 0.316 µM
[22] = second compound 3.16 µM, first compound 1 µM
[23] = second compound 3.16 µM, first compound 3.16 µM
[24] = second compound 3.16 µM, first compound 10 µM
[25] = second compound 10 µM, first compound 0.0316 µM
[26] = second compound 10 µM, first compound 0.1 µM
[27] = second compound 10 µM, first compound 0.316 µM
[28] = second compound 10 µM, first compound 1 µM
[29] = second compound 10 µM, first compound 3.16 µM
[30] = second compound 10 µM, first compound 10 µM
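Note: spheroids exposed to compounds for 7 days before readout.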
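Throughout, for viability, T/C: CTG3D luminescence normalised so that 100% = DMSO vehicle control.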

## C=CCn1c(=O)c2cnc(Nc3ccc(N4CCN(C)CC4)cc3)nc2n1-c1cccc(C(C)(C)O)n1 + CC(C)NCC(C(=O)N1CCN(c2ncnc3c2C(C)CC3O)CC1)c1ccc(Cl)cc1
Second compound 0.1 µM
  IC50: 54.6 nM
Second compound 0.316 µM
  IC50: < 31.6 nM
Second compound 1 µM
  IC50: < 31.6 nM
Second compound 3.16 µM
  IC50: < 31.6 nM
Second compound 10 µM
  IC50: < 31.6 nM
[1]
  viability, T/C: 62.1%
[2]
  viability, T/C: 38.2%
[3]
  viability, T/C: 22.2%
[4]
  viability, T/C: 21.7%
[5]
  viability, T/C: 35.8%
[6]
  viability, T/C: 56.6%
[7]
  viability, T/C: 34%
[8]
  viability, T/C: 22.1%
[9]
  viability, T/C: 19.9%
[10]
  viability, T/C: 16.9%
[11]
  viability, T/C: 22.1%
[12]
  viability, T/C: 28.4%
[13]
  viability, T/C: 24.5%
[14]
  viability, T/C: 15%
[15]
  viability, T/C: 11.1%
[16]
  viability, T/C: 13.7%
[17]
  viability, T/C: 22.9%
[18]
  viability, T/C: 18.9%
[19]
  viability, T/C: 19.2%
[20]
  viability, T/C: 8.76%
[21]
  viability, T/C: 7.09%
[22]
  viability, T/C: 32.9%
[23]
  viability, T/C: 19.9%
[24]
  viability, T/C: 11.9%
[25]
  viability, T/C: 6.27%
[26]
  viability, T/C: 4.29%
[27]
  viability, T/C: 4.36%
[28]
  viability, T/C: 14%
[29]
  viability, T/C: 13.9%
[30]
  viability, T/C: 8.16%

## Cn1nccc1Nc1nccc(-c2ccn(C(CO)c3ccc(Cl)c(F)c3)c(=O)c2)n1 (stereo not given) + CC(C)NCC(C(=O)N1CCN(c2ncnc3c2C(C)CC3O)CC1)c1ccc(Cl)cc1
Second compound 0.1 µM
  IC50: 558 nM
Second compound 0.316 µM
  IC50: < 31.6 nM
Second compound 1 µM
  IC50: < 31.6 nM
Second compound 3.16 µM
  IC50: < 31.6 nM
Second compound 10 µM
  IC50: < 31.6 nM
[1]
  viability, T/C: 65.5%
[2]
  viability, T/C: 66.5%
[3]
  viability, T/C: 57.9%
[4]
  viability, T/C: 41.6%
[5]
  viability, T/C: 44.1%
[6]
  viability, T/C: 35.8%
[7]
  viability, T/C: 45.6%
[8]
  viability, T/C: 40.6%
[9]
  viability, T/C: 24.3%
[10]
  viability, T/C: 14.3%
[11]
  viability, T/C: 16%
[12]
  viability, T/C: 17.1%
[13]
  viability, T/C: 28.2%
[14]
  viability, T/C: 23.2%
[15]
  viability, T/C: 18%
[16]
  viability, T/C: 13.1%
[17]
  viability, T/C: 9.8%
[18]
  viability, T/C: 4.51%
[19]
  viability, T/C: 22.9%
[20]
  viability, T/C: 16.7%
[21]
  viability, T/C: 11.5%
[22]
  viability, T/C: 8.53%
[23]
  viability, T/C: 4.72%
[24]
  viability, T/C: 3.12%
[25]
  viability, T/C: 11.3%
[26]
  viability, T/C: 7.13%
[27]
  viability, T/C: 5.99%
[28]
  viability, T/C: 5.42%
[29]
  viability, T/C: 3.44%
[30]
  viability, T/C: 1.71%

## CC(=O)c1c(C)c2cnc(Nc3ccc(N4CCNCC4)cn3)nc2n(C2CCCC2)c1=O + CCN1CCN(Cc2ccc(Nc3ncc(F)c(-c4cc(F)c5nc(C)n(C(C)C)c5c4)n3)nc2)CC1
Second compound 0.01 µM
  IC50: > 300 nM
Second compound 0.0316 µM
  IC50: > 300 nM
Second compound 0.1 µM
  IC50: > 300 nM
Second compound 0.316 µM
  IC50: > 300 nM
Second compound 1 µM
  IC50: > 300 nM
Second compound 0.01 µM, first compound 0.000949 µM
  viability, T/C: 115%
Second compound 0.01 µM, first compound 0.003 µM
  viability, T/C: 93.8%
Second compound 0.01 µM, first compound 0.00949 µM
  viability, T/C: 84.8%
Second compound 0.01 µM, first compound 0.03 µM
  viability, T/C: 91%
Second compound 0.01 µM, first compound 0.0949 µM
  viability, T/C: 93.4%
Second compound 0.01 µM, first compound 0.3 µM
  viability, T/C: 76.7%
Second compound 0.0316 µM, first compound 0.000949 µM
  viability, T/C: 77.2%
Second compound 0.0316 µM, first compound 0.003 µM
  viability, T/C: 62.8%
Second compound 0.0316 µM, first compound 0.00949 µM
  viability, T/C: 63.6%
Second compound 0.0316 µM, first compound 0.03 µM
  viability, T/C: 73.9%
Second compound 0.0316 µM, first compound 0.0949 µM
  viability, T/C: 65.5%
Second compound 0.0316 µM, first compound 0.3 µM
  viability, T/C: 59.2%
Second compound 0.1 µM, first compound 0.000949 µM
  viability, T/C: 49.8%
Second compound 0.1 µM, first compound 0.003 µM
  viability, T/C: 71.8%
Second compound 0.1 µM, first compound 0.00949 µM
  viability, T/C: 75.4%
Second compound 0.1 µM, first compound 0.03 µM
  viability, T/C: 71.2%
Second compound 0.1 µM, first compound 0.0949 µM
  viability, T/C: 75.9%
Second compound 0.1 µM, first compound 0.3 µM
  viability, T/C: 65.8%
Second compound 0.316 µM, first compound 0.000949 µM
  viability, T/C: 53.1%
Second compound 0.316 µM, first compound 0.003 µM
  viability, T/C: 69.7%
Second compound 0.316 µM, first compound 0.00949 µM
  viability, T/C: 88%
Second compound 0.316 µM, first compound 0.03 µM
  viability, T/C: 81.7%
Second compound 0.316 µM, first compound 0.0949 µM
  viability, T/C: 61%
Second compound 0.316 µM, first compound 0.3 µM
  viability, T/C: 50.6%
Second compound 1 µM, first compound 0.000949 µM
  viability, T/C: 90.4%
Second compound 1 µM, first compound 0.003 µM
  viability, T/C: 86.4%
Second compound 1 µM, first compound 0.00949 µM
  viability, T/C: 99.5%
Second compound 1 µM, first compound 0.03 µM
  viability, T/C: 77.7%
Second compound 1 µM, first compound 0.0949 µM
  viability, T/C: 70.9%
Second compound 1 µM, first compound 0.3 µM
  viability, T/C: 53.6%

## Cc1nc(NC(=O)N2CCCC2C(N)=O)sc1-c1ccnc(C(C)(C)C(F)(F)F)c1 (stereo not given) + CCN1CCN(Cc2ccc(Nc3ncc(F)c(-c4cc(F)c5nc(C)n(C(C)C)c5c4)n3)nc2)CC1
Second compound 0.01 µM
  IC50: 101 nM
Second compound 0.0316 µM
  IC50: 76.4 nM
Second compound 0.1 µM
  IC50: < 31.6 nM
Second compound 0.316 µM
  IC50: 36.2 nM
Second compound 1 µM
  IC50: 114 nM
Second compound 0.01 µM, first compound 0.0316 µM
  viability, T/C: 69.5%
Second compound 0.01 µM, first compound 0.1 µM
  viability, T/C: 46.2%
Second compound 0.01 µM, first compound 0.316 µM
  viability, T/C: 37.3%
Second compound 0.01 µM, first compound 1 µM
  viability, T/C: 28.9%
Second compound 0.01 µM, first compound 3.16 µM
  viability, T/C: 12.9%
Second compound 0.01 µM, first compound 10 µM
  viability, T/C: 11.6%
Second compound 0.0316 µM, first compound 0.0316 µM
  viability, T/C: 62.1%
Second compound 0.0316 µM, first compound 0.1 µM
  viability, T/C: 41.9%
Second compound 0.0316 µM, first compound 0.316 µM
  viability, T/C: 40.9%
Second compound 0.0316 µM, first compound 1 µM
  viability, T/C: 22.5%
Second compound 0.0316 µM, first compound 3.16 µM
  viability, T/C: 15.5%
Second compound 0.0316 µM, first compound 10 µM
  viability, T/C: 10.9%
[1]
  viability, T/C: 41.8%
[2]
  viability, T/C: 43.6%
[3]
  viability, T/C: 27.4%
[4]
  viability, T/C: 20.8%
[5]
  viability, T/C: 14.7%
[6]
  viability, T/C: 10.1%
[7]
  viability, T/C: 51.2%
[8]
  viability, T/C: 39.8%
[9]
  viability, T/C: 25.9%
[10]
  viability, T/C: 20.9%
[11]
  viability, T/C: 17.9%
[12]
  viability, T/C: 12.4%
[13]
  viability, T/C: 54.9%
[14]
  viability, T/C: 50.5%
[15]
  viability, T/C: 42.4%
[16]
  viability, T/C: 24.1%
[17]
  viability, T/C: 18.7%
[18]
  viability, T/C: 11.3%
